Results reported in patent publication US8455475B2 (Gruenenthal GmbH, priority 2009, dated 2013).

Target: T1, rat B1R (bradykinin receptor 1) (Rattus norvegicus, UniProt P97583)
T1 construct: expressed in transfected cells; host or cells: CHO K1 cells
T1 sequence (P97583 1-337): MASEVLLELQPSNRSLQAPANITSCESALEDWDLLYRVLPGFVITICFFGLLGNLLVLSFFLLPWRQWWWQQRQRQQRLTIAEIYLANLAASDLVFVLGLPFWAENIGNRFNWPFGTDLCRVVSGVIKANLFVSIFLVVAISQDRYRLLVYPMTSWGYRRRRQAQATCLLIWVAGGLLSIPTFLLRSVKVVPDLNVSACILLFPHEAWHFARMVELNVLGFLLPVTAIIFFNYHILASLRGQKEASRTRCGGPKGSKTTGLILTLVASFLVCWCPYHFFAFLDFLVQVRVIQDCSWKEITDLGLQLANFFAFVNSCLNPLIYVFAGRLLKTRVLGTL
Assay: FLIPR Ca2+ assay (Fluo-4) on CHO K1 cells stably transfected with the B1R gene of the rat (rB1R cells): % inhibition at 10 μM / IC50, agonist Des-Arg9-bradykinin
Type: cell-based
Conditions: CHO-K1, rat B1R
Outline: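 Peak fluorescence counts read on FLIPR (λex 488, λem 540 nm) after two additions: compound first, then agonist at EC80 after 10–20 min. Human line challenged with Lys-Des-Arg9-bradykinin, rat line with Des-Arg9-bradykinin. Suppression of Ca2+ inflow expressed as % of maximum inhibition.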

inhibition at 10 µM [%]	Structure (SMILES)
95	O=C(NC1CCc2ccc(C(=O)N3CCC4(CCN(CCCc5cccc(F)c5)CC4)C3)cc21)c1cc(C(F)(F)F)ccc1Cl (stereo not shown) [IND_CC-691, 2-Chloro-N-[6-[8-[3-(3-fluorophenyl)-propyl]-2,8-diazaspiro[4.5]decane-2-carbonyl]-2,3-dihydro-1H-inden-1-yl]-5-(trifluoromethyl)-benzamide]
99	O=C(NC1CCc2ccc(C(=O)N3CCC4(CCN(CCCc5ccc(F)cc5)CC4)C3)cc21)c1cc(C(F)(F)F)ccc1Cl (stereo not shown) [IND_CC-692, 2-Chloro-N-[6-[8-[3-(4-fluorophenyl)-propyl]-2,8-diazaspiro[4.5]decane-2-carbonyl]-2,3-dihydro-1H-inden-1-yl]-5-(trifluoromethyl)-benzamide]
68	CCn1cc(CN2CCC3(CC2)CCN(C(=O)c2ccc4c(c2)C(NC(=O)c2cc(C(F)(F)F)ccc2Cl)CC4)CC3)c(C)n1 (stereo not shown) [IND_CC-693, 2-Chloro-N-[6-[9-[(1-ethyl-3-methyl-1H-pyrazol-4-yl)-methyl]-3,9-diazaspiro[5.5]-undecane-3-carbonyl]-2,3-dihydro-1H-inden-1-yl]-5-(trifluoromethyl)-benzamide]
100	CN(C)c1ncc(CN2CCC3(CC2)CCN(C(=O)c2ccc4c(c2)C(NC(=O)c2cc(C(F)(F)F)ccc2Cl)CC4)CC3)cn1 (stereo not shown) [IND_CC-694, 2-Chloro-N-[6-[9-[(2-dimethylamino-pyrimidin-5-yl)-methyl]-3,9-diazaspiro[5.5]-undecane-3-carbonyl]-2,3-dihydro-1H-inden-1-yl]-5-(trifluoromethyl)-benzamide]
100	O=C(NC1CCc2ccc(C(=O)N3CCC4(CCN(Cc5ccc6ncccc6c5)CC4)CC3)cc21)c1cc(C(F)(F)F)ccc1Cl (stereo not shown) [IND_CC-695, 2-Chloro-N-[6-[9-(quinolin-6-yl-methyl)-3,9-diazaspiro[5.5]undecane-3-carbonyl]-2,3-dihydro-1H-inden-1-yl]-5-(trifluoromethyl)-benzamide]
102	O=C(NC1CCc2ccc(C(=O)N3CCC4(CCN(Cc5ccc6nccnc6c5)CC4)CC3)cc21)c1cc(C(F)(F)F)ccc1Cl (stereo not shown) [IND_CC-696, 2-Chloro-N-[6-[9-(quinoxalin-6-yl-methyl)-3,9-diazaspiro[5.5]undecane-3-carbonyl]-2,3-dihydro-1H-inden-1-yl]-5-(trifluoromethyl)-benzamide]
90	CC(C)CN1CCC2(CC1)CCN(C(=O)c1ccc3c(c1)C(NC(=O)c1cc(C(F)(F)F)ccc1Cl)CC3)CC2 (stereo not shown) [IND_CC-698, 2-Chloro-N-[6-[9-(2-methyl-propyl)-3,9-diazaspiro[5.5]undecane-3-carbonyl]-2,3-dihydro-1H-inden-1-yl]-5-(trifluoromethyl)-benzamide]
75	CCC(CC)CN1CCC2(CC1)CCN(C(=O)c1ccc3c(c1)C(NC(=O)c1cc(C(F)(F)F)ccc1Cl)CC3)CC2 (stereo not shown) [IND_CC-699, 2-Chloro-N-[6-[9-(2-ethyl-butyl)-3,9-diazaspiro[5.5]undecane-3-carbonyl]-2,3-dihydro-1H-inden-1-yl]-5-(trifluoromethyl)-benzamide]
64	O=C(NC1CCc2ccc(C(=O)N3CCC4(CCN(CC5CCCCC5)CC4)CC3)cc21)c1cc(C(F)(F)F)ccc1Cl (stereo not shown) [IND_CC-700, 2-Chloro-N-[6-[9-(cyclohexyl-methyl)-3,9-diazaspiro[5.5]undecane-3-carbonyl]-2,3-dihydro-1H-inden-1-yl]-5-(trifluoromethyl)-benzamide]
96	O=C(NC1CCc2ccc(C(=O)N3CCC4(CCN(CCc5ccccc5)CC4)CC3)cc21)c1cc(C(F)(F)F)ccc1Cl (stereo not shown) [IND_CC-701, 2-Chloro-N-[6-(9-phenethyl-3,9-diazaspiro[5.5]undecane-3-carbonyl)-2,3-dihydro-1H-inden-1-yl]-5-(trifluoromethyl)-benzamide]
80	O=C(NC1CCc2ccc(C(=O)N3CCC4(CCN(CCCc5cccc(F)c5)CC4)CC3)cc21)c1cc(C(F)(F)F)ccc1Cl (stereo not shown) [IND_CC-702, 2-Chloro-N-[6-[9-[3-(3-fluorophenyl)-propyl]-3,9-diazaspiro[5.5]undecane-3-carbonyl]-2,3-dihydro-1H-inden-1-yl]-5-(trifluoromethyl)-benzamide]
70	O=C(NC1CCc2ccc(C(=O)N3CCC4(CCN(CCCc5ccc(F)cc5)CC4)CC3)cc21)c1cc(C(F)(F)F)ccc1Cl (stereo not shown) [IND_CC-703, 2-Chloro-N-[6-[9-[3-(4-fluorophenyl)-propyl]-3,9-diazaspiro[5.5]undecane-3-carbonyl]-2,3-dihydro-1H-inden-1-yl]-5-(trifluoromethyl)-benzamide]
91	CCCNC(=O)N1CCC2(CC1)CCN(C(=O)c1ccc3c(c1)C(NC(=O)c1ccccc1Cl)CC3)CC2 (stereo not shown) [IND_CC-704, 3-[3-[(2-Chloro-benzoyl)amino]-2,3-dihydro-1H-indene-5-carbonyl]-N-propyl-3,9-diazaspiro[5.5]undecane-9-carboxylic acid amide]
101	N#Cc1cccc(NC(=O)N2CCC3(CC2)CCN(C(=O)c2ccc4c(c2)C(NC(=O)c2ccccc2Cl)CC4)CC3)c1 (stereo not shown) [IND_CC-705, 3-[3-[(2-Chloro-benzoyl)amino]-2,3-dihydro-1H-indene-5-carbonyl]-N-(3-cyano-phenyl)-3,9-diazaspiro[5.5]undecane-9-carboxylic acid amide]
103	O=C(NC1CCc2ccc(C(=O)N3CCC4(CCN(C(=O)NCc5ccccc5)CC4)CC3)cc21)c1ccccc1Cl (stereo not shown) [IND_CC-706, N-Benzyl-3-[3-[(2-chloro-benzoyl)amino]-2,3-dihydro-1H-indene-5-carbonyl]-3,9-diazaspiro[5.5]undecane-9-carboxylic acid amide]
92	CN(C)c1ccc(NC(=O)N2CCC3(CC2)CCN(C(=O)c2ccc4c(c2)C(NC(=O)c2ccccc2Cl)CC4)CC3)cc1 (stereo not shown) [IND_CC-707, 3-[3-[(2-Chloro-benzoyl)amino]-2,3-dihydro-1H-indene-5-carbonyl]-N-(4-dimethylaminophenyl)-3,9-diazaspiro[5.5]undecane-9-carboxylic acid amide]
99	O=C(NC1CCc2ccc(C(=O)N3CCC4(CCN(C(=O)NC5CCCCC5)CC4)CC3)cc21)c1ccccc1Cl (stereo not shown) [IND_CC-708, 3-[3-[(2-Chloro-benzoyl)amino]-2,3-dihydro-1H-indene-5-carbonyl]-N-cyclohexyl-3,9-diazaspiro[5.5]undecane-9-carboxylic acid amide]
91	O=C(NC1CCc2ccc(C(=O)N3CCC4(CCN(C(=O)Nc5c(Cl)cccc5Cl)CC4)CC3)cc21)c1ccccc1Cl (stereo not shown) [IND_CC-709, 3-[3-[(2-Chloro-benzoyl)amino]-2,3-dihydro-1H-indene-5-carbonyl]-N-(2,6-dichloro-phenyl)-3,9-diazaspiro[5.5]undecane-9-carboxylic acid amide]
90	O=C(NC1CCc2ccc(C(=O)N3CCC4(CCN(C(=O)Nc5ccc(Cl)cc5Cl)CC4)CC3)cc21)c1ccccc1Cl (stereo not shown) [IND_CC-710, 3-[3-[(2-Chloro-benzoyl)amino]-2,3-dihydro-1H-indene-5-carbonyl]-N-(2,4-dichlorophenyl)-3,9-diazaspiro[5.5]undecane-9-carboxylic acid amide]
